{"source": "paper PMC6010093", "about": "“α-Glucosidase inhibitory activity and cytotoxic effects of some cyclic urea and carbamate derivatives” (Journal of Enzyme Inhibition and Medicinal Chemistry, 2017)", "key": {"[1]": {"system": "HeLa, cervix adenocarcinoma cell line", "assay": "MTT cytotoxicity assay, HeLa", "type": "cell-based", "details": "Homo sapiens, 72 h exposure, mean ± standard deviation"}, "[2]": {"system": "MDA-MB-453 human breast cancer cell line", "assay": "MTT cytotoxicity assay, MDA-MB-453", "type": "cell-based", "details": "72 h exposure, mean ± standard deviation"}, "[3]": {"system": "A549, non-small cell lung carcinoma cell line", "assay": "MTT cytotoxicity assay, A549", "type": "cell-based", "details": "Homo sapiens, 72 h exposure, mean ± standard deviation"}, "[4]": {"system": "HeLa cells", "assay": "Morphological evaluation of cell death (acridine orange/ethidium bromide staining, fluorescence microscope)", "type": "cell-based, human", "description": "After 24 h of seeding 80 000 HeLa cells per well, they were treated with compound dilutions of IC50 and 2 × IC50 in control only nutrient medium was added. After another 24 h of incubation cells were stained with acridine orange AO and ethidium bromide EB (3 μg/mLAO +10 μg/mL EB in PBS), then visualized under a fluorescence microscope (Carl Zeiss, Oberkochen, Germany) PALM MicroBeam with Axio Observer.Z1 using AxioCam MRm (filters Alexa 488 and 568), as described in literature.\nMorphological changes were observed after cells were stained with acridine orange and ethidium-bromide. Acridine orange can penetrate into the living cells and emits green fluorescence, while ethidium-bromide enters the cells after cell membrane damage and emits red fluorescence. […] Observed control cells are with unchanged morphology, stained green."}, "[5]": {"details": "24 h treatment with 2 × IC50 concentration of compound"}, "[6]": {"details": "24 h treatment with IC50 dilution of compound"}}, "note": "“Also recorded” adds a separate entry of the source."}
{"compound": "COc1cc(NC(=O)OCc2ccccc2)cc(OC)c1OC", "note": "[Compound 12, benzyl (3,4,5-trimethoxyphenyl)carbamate]", "values": [{"measurement": "IC50", "setting": "[1]", "value": "139 ± 8.28", "unit": "µM"}, {"measurement": "IC50", "setting": "[2]", "value": "108 ± 4.95", "unit": "µM"}, {"measurement": "IC50", "setting": "[3]", "value": "180 ± 2.57", "unit": "µM"}, {"measurement": "Morphological changes of HeLa cells (cell death type)", "setting": "[4]; [5]", "value": "necrotic changes"}, {"measurement": "Morphological changes of HeLa cells (cell death type)", "setting": "[4]; [6]", "value": "late apoptotic signs; also recorded: apoptosis occurred"}]}
{"compound": "CC(C)(C)OC(=O)N1CCC(NC(=O)OCc2ccccc2)CC1", "note": "[Compound 8]", "values": [{"measurement": "IC50", "setting": "[1]", "value": "158 ± 6.04", "unit": "µM"}, {"measurement": "IC50", "setting": "[2]", "value": "112 ± 4.91", "unit": "µM"}, {"measurement": "IC50", "setting": "[3]", "value": "155.8 ± 0.7", "unit": "µM"}, {"measurement": "Morphological changes of HeLa cells (cell death type)", "setting": "[4]; [5]", "value": "necrotic changes"}, {"measurement": "Morphological changes of HeLa cells (cell death type)", "setting": "[4]; [6]", "value": "late apoptotic signs; also recorded: apoptosis occurred"}]}
{"compound": "COC(=O)Nc1cc(OC)c(OC)c(OC)c1", "note": "[Compound 11]", "values": [{"measurement": "IC50", "setting": "[1]", "value": "194.4 ± 1.44", "unit": "µM"}, {"measurement": "IC50", "setting": "[2]", "value": "164 ± 3.93", "unit": "µM"}, {"measurement": "IC50", "setting": "[3]", "value": "200 ± 2.37", "unit": "µM"}, {"measurement": "Morphological changes of HeLa cells (cell death type)", "setting": "[4]; [5]", "value": "necrotic changes"}, {"measurement": "Morphological changes of HeLa cells (cell death type)", "setting": "[4]; [6]", "value": "late apoptotic signs; also recorded: apoptosis occurred"}]}
